Reference: patent publication EP0481522B1, “Novel mercaptoacetylamide derivatives useful as inhibitors of enkephalinase and ace” (MERRELL PHARMACEUTICALS INC., priority 1990, dated 1992)

Key:
Enkephalinase = target: T1, Enkephalinase (Rattus norvegicus, UniProt P07861); assay: Enkephalinase inhibition, fluorometric enzyme assay; format: biochemical; conditions: enzyme partially purified from rat kidney; 12 µM dansyl-D-AlaGly(p-nitro)PheGly, 50mM HEPES buffer (pH 7.4), 25°C
T1 construct: The enzyme is extracted from the microvilli fraction by using Triton X-100; from tissue; host or cells: rat kidney, microvilli fraction
T1 sequence (P07861 1-750): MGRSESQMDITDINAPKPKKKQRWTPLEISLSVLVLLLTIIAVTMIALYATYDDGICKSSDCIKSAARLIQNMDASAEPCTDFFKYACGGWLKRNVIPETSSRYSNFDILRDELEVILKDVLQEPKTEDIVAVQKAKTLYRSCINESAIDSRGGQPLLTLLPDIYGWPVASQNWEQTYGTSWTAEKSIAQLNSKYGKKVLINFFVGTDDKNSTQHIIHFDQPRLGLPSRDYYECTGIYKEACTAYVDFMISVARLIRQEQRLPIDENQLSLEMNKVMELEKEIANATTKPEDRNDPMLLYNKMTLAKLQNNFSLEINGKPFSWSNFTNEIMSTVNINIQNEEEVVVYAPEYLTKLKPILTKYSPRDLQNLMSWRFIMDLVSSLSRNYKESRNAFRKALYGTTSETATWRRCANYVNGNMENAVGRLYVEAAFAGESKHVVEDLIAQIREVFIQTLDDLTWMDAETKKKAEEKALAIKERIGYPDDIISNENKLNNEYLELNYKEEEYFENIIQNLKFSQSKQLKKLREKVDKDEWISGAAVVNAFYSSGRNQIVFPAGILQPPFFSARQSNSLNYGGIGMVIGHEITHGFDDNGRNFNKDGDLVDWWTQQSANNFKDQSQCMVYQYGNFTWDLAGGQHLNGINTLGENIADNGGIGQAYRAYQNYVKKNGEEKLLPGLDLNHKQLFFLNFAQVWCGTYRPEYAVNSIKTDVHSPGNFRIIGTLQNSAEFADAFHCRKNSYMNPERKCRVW
Excerpt: Enkephalinase is partially purified from rat kidney. The enzyme is extracted from the microvilli fraction by using Triton X-100 according to the method of Malfroy and Schwartz [J.Biol.Chem. 259, 14365-14370 (1984)] or by using proteolytic treatment according to the method of Almenoff and Orlowski [Biochem. 22, 590-599 (1983)]. The enzyme is further purified by anion exchange chromatography (Mono QTM column, Pharmacia) using a Pharmacia FPLC system. The enzyme activity may be measured by the fluorometric methods of Florentin et al. [Anal.Biochem. 141, 62-69 (1984)] or of Almenoff and Orlowski [J.Neurochemistry 42, 151-157 (1984)]. […] The substrate (and inhibitor) is added from a concentrated stock soluticn in DMSO (up to 0.1 mL DMSO final volume). The enzyme in a small volume (approximately 0.1 μg of FPLC purified protein) is added to initiate the reaction and the rate of fluorescense increase is recorded continuously using a fluorometer (excitation at 339nm, emission at 562nm).

ACE = ACE (Homo sapiens, UniProt P12821); assay: ACE inhibition, spectrophotometric enzyme assay; format: biochemical; conditions: spectrophotometric substrate of Holmquist et al., buffer system of Ryan
ACE, sequence (P12821 30-1306, species assumed): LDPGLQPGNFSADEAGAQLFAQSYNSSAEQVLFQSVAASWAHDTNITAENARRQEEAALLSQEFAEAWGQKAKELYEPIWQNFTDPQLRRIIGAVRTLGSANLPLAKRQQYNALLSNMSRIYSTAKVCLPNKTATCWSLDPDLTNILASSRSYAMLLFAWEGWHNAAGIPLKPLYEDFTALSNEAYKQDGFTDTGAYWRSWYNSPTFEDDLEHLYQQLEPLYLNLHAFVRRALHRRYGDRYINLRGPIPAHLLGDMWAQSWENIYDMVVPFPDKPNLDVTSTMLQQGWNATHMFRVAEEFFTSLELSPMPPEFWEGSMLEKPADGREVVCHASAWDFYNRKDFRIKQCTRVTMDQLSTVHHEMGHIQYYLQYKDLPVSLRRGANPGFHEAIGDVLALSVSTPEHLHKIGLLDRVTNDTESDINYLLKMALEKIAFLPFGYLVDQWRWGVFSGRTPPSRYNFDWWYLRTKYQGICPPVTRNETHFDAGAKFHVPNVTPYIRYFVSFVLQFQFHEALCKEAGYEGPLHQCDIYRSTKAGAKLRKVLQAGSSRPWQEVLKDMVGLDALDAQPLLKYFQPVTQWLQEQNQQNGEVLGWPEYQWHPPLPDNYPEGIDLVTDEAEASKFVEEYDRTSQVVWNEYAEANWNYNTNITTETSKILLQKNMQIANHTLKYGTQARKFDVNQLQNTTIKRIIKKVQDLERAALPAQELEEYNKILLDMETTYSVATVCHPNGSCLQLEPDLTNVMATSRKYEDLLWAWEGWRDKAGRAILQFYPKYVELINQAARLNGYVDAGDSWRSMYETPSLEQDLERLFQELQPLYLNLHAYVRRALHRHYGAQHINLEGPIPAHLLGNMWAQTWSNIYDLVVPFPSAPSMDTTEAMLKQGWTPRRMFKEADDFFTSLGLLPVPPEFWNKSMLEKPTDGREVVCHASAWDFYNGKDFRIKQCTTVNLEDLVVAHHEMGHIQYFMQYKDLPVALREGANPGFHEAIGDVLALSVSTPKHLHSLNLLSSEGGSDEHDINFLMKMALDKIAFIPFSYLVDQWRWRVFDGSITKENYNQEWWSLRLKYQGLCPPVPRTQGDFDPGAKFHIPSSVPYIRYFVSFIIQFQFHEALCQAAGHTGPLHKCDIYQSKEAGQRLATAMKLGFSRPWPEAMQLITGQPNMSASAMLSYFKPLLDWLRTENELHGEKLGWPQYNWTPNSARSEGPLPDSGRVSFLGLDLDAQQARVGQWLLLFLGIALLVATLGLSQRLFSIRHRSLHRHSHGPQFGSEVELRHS
Excerpt: The enzymatic activity of ACE is monitored using the spectrophotometric substrate described by Holmquist et al. [Anal.Biochem. 95, 540-548 (1979)] and the buffer system described by Ryan [Methods of Enzymatic Analysis, 3rd ed., H. U. Bergmeyer, editor; vol. V, Verlag Chemie, Weinheim, 1983, pp. 20-34].

SMILES: O=C(CS)N[C@H]1Cc2ccccc2[C@H]2CCC[C@@H](C(=O)O)N2C1=O (relative stereo) [27,855, [4S-[4α, 7α(R*), 12bβ]]-7-[(1-oxo-2-thio-ethyl)amino]-1,2,3,4,6,7,8,12b-octahydro-6-oxo-pyrido[2,1-a][2]benzazepine-4-carboxylic acid]
- Ki (Enkephalinase): 8 nM
- Ki (ACE): 5 nM

SMILES: O=C(N[C@H]1Cc2ccccc2[C@H]2CCC[C@@H](C(=O)O)N2C1=O)C(S)c1ccccc1 (relative stereo) [101,804, [4S-[4α, 7α(R*), 12bβ]]-7-[(1-Oxo-2-thio-2-phenylethyl)amino]-1,2,3,4,6,7,8,12b-octahydro-6-oxo-pyrido[2,1-a][2]benzazepine-4-carboxylic acid]
- Ki (Enkephalinase): 1 nM
- Ki (ACE): 2.1 nM

SMILES: CC(=O)S[C@@H](Cc1ccccc1)C(=O)N[C@H]1Cc2ccccc2[C@H]2COC[C@@H](C(=O)O)N2C1=O (relative stereo) [102,179, [4S-[4α, 7α(R*), 12bβ]]-7-[(1-Oxo-2(S)-acetylthio-3-phenylpropyl)amino]-1,2,3,4,6,7,8,12b-hexahydro-6-oxo-1H-[1,4]oxazino[3,4-a][2]benzazepine-4-carboxylic acid]
- Ki (Enkephalinase): < 1 nM
- Ki (ACE): < 7 nM

SMILES: O=C(N[C@H]1Cc2ccccc2[C@H]2COC[C@@H](C(=O)O)N2C1=O)[C@@H](S)Cc1ccccc1 (relative stereo) [101,519, [4S-[4α, 7α(R*), 12bβ]]-7-[(1-Oxo-2(S)-thio-3-phenylpropyl)amino]-1,2,3,4,6,7,8,12b-hexahydro-6-oxo-1 H-[1,4]-oxazino[3,4-a][2]benzazepine-4-carboxylic acid]
- Ki (Enkephalinase): < 1 nM
- Ki (ACE): < 7 nM

SMILES: O=C(N[C@H]1Cc2ccccc2[C@H]2CC[C@@H](C(=O)O)N2C1=O)[C@H](S)Cc1ccccc1 (relative stereo) [100,919, [6α(R*), 11bβ]-6-[(S)-(1-oxo-2(R)-thio-3-phenylpropyl)amino]-1,2,3,5,6,7,11b-heptahydro-5-oxo-pyrrolo[2,1-a][2]benzazepine-3(S)-carboxylic acid]
- Ki (Enkephalinase): < 1 nM
- Ki (ACE): 1 nM

SMILES: O=C(N[C@H]1Cc2ccccc2[C@H]2CCC[C@@H](C(=O)O)N2C1=O)[C@H](S)Cc1ccccc1 (relative stereo) [101,628, [4S-[4α, 7α(R*), 12bβ]]-7-[(1-Oxo-2(R)-thio-3-phenylpropyl)amino]-1,2,3,4,6,7,8,12b-octahydro-6-oxo-pyrido[2,1-a][2]benzazepine-4-carboxylic acid]
- Ki (Enkephalinase): < 1 nM
- Ki (ACE): 6.7 nM

SMILES: O=C(N[C@H]1Cc2ccccc2[C@H]2CCC[C@@H](C(=O)O)N2C1=O)[C@@H](S)Cc1ccccc1 (relative stereo) [100,173, [4S-[4α, 7α(R*), 12bβ]]-7-[(1-oxo-2(S)-thio-3-phenylpropyl)amino]-1,2,3,4,6,7,8,12b-octahydro-6-oxo-pyrido[2,1-a][2]benzazepine-4-carboxylic acid]
- Ki (Enkephalinase): < 1 nM
- Ki (ACE): 0.74 nM
